Laboratory results as given in patent US12516043B2, “Stiripentol derivative and use thereof” (National University Corporation Okayama University, priority 2020, dated 2026).

Legend:
[1] = Pharmacokinetic evaluation by oral administration to a mouse (HPLC/MS of blood plasma); type: in vivo, ICR mice; settings: 50 mg/kg oral, blood plasma thirty minutes later; for in vivo metabolic stability: HPLC (MS for No. 1)
Procedure: Pharmacokinetic evaluation (compounds Nos. 1, 2, 4 and 9, FIGS. 6 to 10) by oral administration to a mouse:
For pharmacokinetic study, 6-7 week-old ICR mice were used in experiments. […] A vehicle or each of the compounds (50 mg/kg) were respectively orally administered to a mouse by a disposable sonde. Thirty minutes later, each mouse was decapitated for sampling their blood. Heparin sodium (10 μg/mL) was added to the blood as an anticoagulant. After each blood sample was centrifuged for 15 minutes (1,000 g, 4° C.), the supernatant was obtained as a blood plasma. Subsequently, to extract a compound, ethyl acetate was added to the obtained blood plasma, air-dried with nitrogen gas, and dissolved again with acetonitrile. The sample pretreated in this manner was subjected to the following analysis (HPLC, MS). In performing the HPLC analysis, constituents of the blood plasma were separated by the HPLC system (manufactured by JASCO Corporation) using a C18 reverse-phase column, at a flow rate of 1.0 mL/min. For analysis of the compound No. 1, a mobile phase consisting of acetonitrile (80%) and water (20%) was used, whereas a mobile phase consisting of acetonitrile (70%) and water (30%) was used for analysis of Compounds No. 2, No. 4 and No. 9. Individual compounds were detected by a UV detector at 295 nm. The data were obtained/analyzed by a software, ChromNAV (manufactured by JASCO Corporation). To identify an unchanged compound within the blood plasma constituents, the compound itself was directly analyzed as a standard substance by HPLC and the retention times of these compounds were compared. In the MS analysis, LC-MS/MS system (Agilent 1200 HPLC-Chip and 6520 Accurate-Mass Q-TOF), manufactured by Agilent Technologies, was used. The pretreated sample was allowed to adsorb onto a C18 chip by use of a mobile phase consisting of acetonitrile (25%) and water (75%) containing formic acid (0.1%), and thereafter, the blood plasma constituents were separated by a mobile phase consisting of acetonitrile (60%) and water (40%) containing formic acid (0.1%). The MS spectrum of the blood plasma constituents separated was detected (obtained) by a mass spectrometer, and data was obtained/analyzed by a software, MassHunter Qualitative Analysis (Agilent Technologies).

[2] = molecular target: human LDH5 (tetramer of LDHA) (Homo sapiens, UniProt P00338); assay: Lactate dehydrogenase inhibitory action, enzymatic reaction plus chromogenic reaction (LDH5); type: biochemical; settings: FIG. 1A
Procedure: (§1) Evaluation of Lactate Dehydrogenase Inhibitory Action (Compounds Nos. 1 to 10, FIGS. 1 to 5):
(§2) Lactate dehydrogenase catalyzes production of lactic acid and NAD from pyruvic acid and NADH. […] In order to evaluate the enzymatic activity of lactate dehydrogenase, experiments were carried out using an evaluation system (Patent Literature 1, Non-Patent Literature 9) consisting of an enzymatic reaction (step 1) and a chromogenic reaction (step 2). In the enzymatic reaction of step 1, sodium pyruvate (100 μM), NADH (100 μM) and lactate dehydrogenase (human LDH1 or LDH5) were added, further an inhibitor (Compounds Nos. 1 to 10) different in concentration was added. The mixture was subjected to a reaction carried out in the presence of a 100 mM sodium phosphate buffer (pH 7.3, 37° C.) for 60 minutes (200 μL/well). In this stage, absorbance of the background at 492 nm was measured by a plate reader (absorbance before chromogenic reaction). […] INT changed into INT formazan by the action of diaphorase in the presence of NADH, and absorbance of INT formazan at 492 nm was measured by a plate reader (absorbance after chromogenic reaction). […] Then, the absorbance before chromogenic reaction was subtracted from the absorbance after chromogenic reaction. The value obtained by the above calculation was regarded as an “absorbance change value (ΔA)”. […]

[3] = molecular target: human LDH1 (tetramer of LDHB) (Homo sapiens, UniProt P07195); assay: Lactate dehydrogenase inhibitory action, enzymatic reaction plus chromogenic reaction (LDH1); type: biochemical; settings: FIG. 1B, each n=3
Chain of human LDH1 (tetramer of LDHB) (P07195 whole entry): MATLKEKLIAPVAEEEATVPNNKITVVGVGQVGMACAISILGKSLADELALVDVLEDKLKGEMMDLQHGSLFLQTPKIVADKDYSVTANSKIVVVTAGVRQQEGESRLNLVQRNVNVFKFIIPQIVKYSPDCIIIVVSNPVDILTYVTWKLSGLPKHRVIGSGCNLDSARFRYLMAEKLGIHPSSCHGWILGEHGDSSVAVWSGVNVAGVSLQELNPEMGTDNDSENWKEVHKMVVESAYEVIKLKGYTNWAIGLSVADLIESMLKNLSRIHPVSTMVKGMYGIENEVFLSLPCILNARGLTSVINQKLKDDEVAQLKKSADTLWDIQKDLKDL
Procedure: as §1, §2

[4] = Solubility in lipid (choice of vehicle); type: physicochemical
[5] = test system: epileptic seizures in hippocampal sclerosis model mouse; assay: Pharmacological effect evaluation using a hippocampal sclerosis model mouse; type: in vivo, ICR mice
Procedure: Pharmacological Effect Evaluation by Using a Hippocampal Sclerosis Model Mouse (Compound No. 2, FIG. 11):
Hippocampal sclerosis model mice for use in evaluating anti-epileptic action were prepared according to the literatures already published (Non-Patent Literatures 3 and 13). First, 6-7 week-old ICR mice were each anesthetized with a mixed solution of ketamine (100 mg/kg) and xylazine (40 mg/kg) and fixed to a stereotaxic apparatus. Subsequently, the scalp was removed and a U-shaped plastic frame required for recording electroencephalography in vivo was attached to the head. Then, a small amount of kainic acid (0.8 nmol, 40 nL) for inducing epilepsy was injected to the dorsal hippocampus (1.6 mm posterior to the bregma, 1.6 mm laterally from the center line, 1.4 mm (depth) from the brain surface) via a micro glass electrode and a metal electrode (diameter 200 μm) for measuring epileptic seizures was embedded in the proximity of the injection site of kainic acid. A reference electrode was installed in the cerebellum. Three weeks after the surgery, epileptic seizures spontaneously generated from the hippocampus were measured to evaluate anti-epilepsy action. Each mouse head was immobilized via a U-shaped frame, brain waves of the hippocampus was recorded through an analog filter of 0.5-30 Hz and digitized by an AD converter at a sampling rate of 1 kHz. After baseline brain wave was measured for one hour, a vehicle or Compound No. 2 was orally administered to each mouse by a disposable sonde, and their brain waves were recorded for further 3 hours. Epileptic seizures were analyzed by Igor Pro (WaveMetrics) and epileptic seizures lasting for 8 seconds or more were counted. Statistical analysis was carried out by SigmaPlot (Systat Software).

lactate dehydrogenase = settings: Non-Patent Literature 3; cited from earlier work

| SMILES | unchanged compound in the blood after oral administration [1] | in vivo metabolic stability [1] | concentration at which inhibitory activity against LDHA was exerted ([2]; n=3) [µM] | inhibitory activity against LDHB (in words) [3] | solubility in lipid [4] | inhibitory activity against LDHA (in words) ([2]; n=3, compared with compound No. 1 (5 μM)) | epileptic seizure in the hippocampus ([5]; 150 mg/kg oral, 2.5 hours after administration, FIG. 11B) | number of seizures, dose dependency versus vehicle ([5]; dose of 50 mg/kg oral, 2-3 hours after administration, FIG. 11D, n=11) | number of spontaneous epileptic seizures per hour versus baseline ([5]; oral, one hour after the administration, FIG. 11C, n=10) | inhibitory action against lactate dehydrogenase (lactate dehydrogenase) |
| --- | --- | --- | --- | --- | --- | --- | --- | --- | --- | --- |
| O=C(/C=C/c1ccc2c(c1)OCO2)c1ccc(-c2ccccc2)cc1 [Compound No. 1, reference compound] | quickly disappears | low | 5 | almost the same strong inhibitory activity | highly soluble in lipid | – | – | – | – | – |
| OC(/C=C/c1ccc2c(c1)OCO2)c1ccc(-c2ccccc2)cc1 (centres unmarked) [Compound No. 2] | maintained | high | – | almost the same strong inhibitory activity | highly soluble in lipid | exert an inhibitory activity at the same concentration | suppressed | significantly decreases | significant decrease | – |
| OC(/C=C/c1ccc2c(c1)OCO2)c1ccc(-c2ccc(F)cc2)cc1 (centres unmarked) [Compound No. 4] | maintained | high | – | – | highly soluble in lipid | – | – | – | – | – |
| OC(/C=C/c1ccc2c(c1)OCO2)c1ccc(-c2ccccc2)cc1F (centres unmarked) [Compound No. 9] | maintained | high | – | – | highly soluble in lipid | – | – | – | – | – |
| CC(C)(C)C(O)/C=C/c1ccc2c(c1)OCO2 (centres unmarked) [stiripentol] | – | – | – | – | – | – | – | – | – | weak |
